Key:
[1] = tested on: Helicoverpa armigera; assay: Helicoverpa armigera diet incorporation method; assay type: in vivo; conditions: third instar larvae, dead and moribund combined, 96 h after release
Experimental: (§1) Test Solutions were Prepared According to the Procedure Described Herein Below (500 PPM):
(§2) • 1. Eppendorf Vortex mixer (ThermoMixer C) and 1.5 mL Eppendorf tubes • 2. Zirconia (Zirconium-Yttrium) beads having diameter of 0.8 to 1.0 mm • 3. Microscope • 4. Beaker 100 mL • 5. Micro-pipette Reagents: • 1. Surfactant Solution • 2. De-mineralized (DM) Water • 1. Weigh 10 mg of the compound of the present invention to be tested in an Eppendorf Tube. • 2. Add 200 mg of the Surfactant Solution into the tube. • 3. Add 600 mg of Zirconia beads into the above mixture. • 4. Fix the tube in Eppendorf Vortex mixer and start vortexing at 2000 rpm. • 5. Mix on Vortex mixer for 30 minutes. After 30 minutes, observe the sample over a microscope at 400× resolution. • 6. If the Maximum particle size is more than 5 μm or average particle size is more than 2 μm or the particle size distribution is uneven, continue vortexing for another 30 minutes and again check the particle size using the microscope. Continue till the average particle size is below 2 microns. • 7. When the required particle size is achieved, add 1.0 mL DM water into the tube, close the cap, shake the tube thoroughly and transfer the contents, along with the beads, into a beaker. • 8. To rinse the tube, add another 1.0 mL of DM water into the tube, close the cap, shake well and transfer this into the same beaker. • 9. Repeat Step no. 8 one more time so that the tube is rinsed well and the compound of the present invention to be tested is transferred to the beaker. • 10. Add 16.8 mL of DM water into the beaker and stir well. • 11. The homogeneous dispersion can then be decanted into a glass vial, immediately, to separate the Zirconia beads. • 12. Immediately use this sample for biological testing. • 13. Further dilutions can be prepared by taking appropriate quantity of the aliquot of Step 10, immediately after stirring, and diluting as per requirement. The sample solution must be well mixed just before biological testing.
Diet incorporation method was used, in which and semi-synthetic diet was incorporated into the test solution when the temperature is approximately 50° C. in the bioassay containers and stirred thoroughly for properly mixing and then was allowed to cool for 30 min. The solidified diet was cut into equal pieces, and then each piece was transferred in one cell in Bio-assay trays. A single third instar starved larva was released into each of these cells of bioassay trays and the tray was covered with the lid. The bio-assay trays were kept under laboratory conditions at a temperature of 25° C. and Relative Humidity of 70%. Observations on dead, moribund and live larvae were recorded at 96 h after the release of larvae. Percent mortality was calculated by combining dead and moribund larvae. The following compound numbers

[2] = tested on: Plutella xylostella; assay: whole plant or invertebrate; assay type: in vivo; conditions: foliar, cabbage leaf dip, second instar larvae, dead and moribund combined, 72 h after release
Experimental: as §1, §2
Leaf dip method was used for screening, wherein the required quantity of the compounds were weighed and dissolved in the test solution into the tube and vortex at 2000 rpm with Zirconia beads for 90 min for proper mixing, then mixed with 0.01% Triton-X solution to get the desired test concentration. Cabbage leaves were dipped in the solution for 10 seconds, shade dried for 20 min and then transferred to bioassay trays. Single second instar larva was released into each cell and the tray was covered with lid. The bio-assay trays were kept under laboratory conditions at a temperature of 25° C. and relative humidity of 70%. Observations on dead, moribund and live larvae were recorded at 72 h after the release. Percent mortality was calculated by combining dead and moribund larvae. The following compound num.

Structure (SMILES)	mortality at 300 ppm [1]	mortality at 300 ppm [2]
CONC(=O)c1c(NC(=O)c2cc(N3CC(F)(F)C3)nn2-c2ncccc2Cl)c(C)cc2ccnn12 [Compound 84, 6-(1-(3-chloropyridin-2-yl)-3-(3,3-difluoroazetidin-1-yl)-1H-pyrazole-5-carboxamido)-N-methoxy-5-methylpyrazolo[1,5-a]pyridine-7-carboxamide]	> 70%	> 70%
Cc1cc2ccnn2c(C(=O)NCC(F)(F)F)c1NC(=O)c1cc(OCC(F)(F)F)nn1-c1ncccc1Cl [Compound 114, 6-(1-(3-chloropyridin-2-yl)-3-(2,2,2-trifluoroethoxy)-1H-pyrazole-5-carboxamido)-5-methyl-N-(2,2,2-trifluoroethyl)pyrazolo[1,5-a]pyridine-7-carboxamide]	> 70%	> 70%
CCONC(=O)c1c(NC(=O)c2cc(OCC(F)(F)F)nn2-c2ncccc2Cl)c(C)cc2ccnn12 [Compound 115, 6-(1-(3-chloropyridin-2-yl)-3-(2,2,2-trifluoroethoxy)-1H-pyrazole-5-carboxamido)-N-ethoxy-5-methylpyrazolo[1,5-a]pyridine-7-carboxamide]	> 70%	> 70%
Cc1cc2ccnn2c(C(=O)NOC(C)C)c1NC(=O)c1cc(OCC(F)(F)F)nn1-c1ncccc1Cl [Compound 116, 6-(1-(3-chloropyridin-2-yl)-3-(2,2,2-trifluoroethoxy)-1H-pyrazole-5-carboxamido)-N-isopropoxy-5-methylpyrazolo[1,5-a]pyridine-7-carboxamide]	> 70%	> 70%
Cc1cc2ccnn2c(C(=O)NCC#N)c1NC(=O)c1cc(C(F)(F)F)nn1-c1ncccc1Cl [Compound 117, 6-(1-(3-chloropyridin-2-yl)-3-(trifluoromethyl)-1H-pyrazole-5-carboxamido)-N-(cyanomethyl)-5-methylpyrazolo[1,5-a]pyridine-7-carboxamide]	> 70%	> 70%
CCNC(=O)c1c(NC(=O)c2cc(C(F)(F)F)nn2-c2ncccc2Cl)c(Br)cc2ccnn12 [Compound 127, 5-bromo-6-(1-(3-chloropyridin-2-yl)-3-(trifluoromethyl)-1H-pyrazole-5-carboxamido)-N-ethylpyrazolo[1,5-a]pyridine-7-carboxamide]	> 70%	> 70%
COc1cc(C(=O)Nc2c(Br)cc3ccnn3c2C(=O)NC(C)C)n(-c2ncccc2Cl)n1 [Compound 130, 5-bromo-6-(1-(3-chloropyridin-2-yl)-3-methoxy-1H-pyrazole-5-carboxamido)-N-isopropylpyrazolo[1,5-a]pyridine-7-carboxamide]	> 70%	> 70%
COc1cc(C(=O)Nc2c(Cl)cc3ccnn3c2C(=O)NCC2CC2)n(-c2ncccc2Cl)n1 [Compound 131, 5-chloro-6-(1-(3-chloropyridin-2-yl)-3-methoxy-1H-pyrazole-5-carboxamido)-N-(cyclopropylmethyl)pyrazolo[1,5-a]pyridine-7-carboxamide]	> 70%	> 70%
O=C(Nc1c(Cl)cc2ccnn2c1C(=O)NCC(F)(F)F)c1cc(Br)nn1-c1ncccc1Cl [Compound 143, 6-(3-bromo-1-(3-chloropyridin-2-yl)-1H-pyrazole-5-carboxamido)-5-chloro-N-(2,2,2-trifluoroethyl)pyrazolo[1,5-a]pyridine-7-carboxamide]	> 70%	–
CCCNC(=O)c1c(NC(=O)c2cc(Cn3nnc(C(F)(F)F)n3)nn2-c2ncccc2Cl)c(Cl)cc2ccnn12 [Compound 155, 5-chloro-6-(1-(3-chloropyridin-2-yl)-3-((5-(trifluoromethyl)-2H-tetrazol-2-yl)methyl)-1H-pyrazole-5-carboxamido)-N-propylpyrazolo[1,5-a]pyridine-7-carboxamide]	> 70%	–
COCCNC(=O)c1c(NC(=O)c2cc(OC3CSC3)nn2-c2ncccc2Cl)c(C)cc2ccnn12 [Compound 161, 6-(1-(3-chloropyridin-2-yl)-3-(thietan-3-yloxy)-1H-pyrazole-5-carboxamido)-N-(2-methoxyethyl)-5-methylpyrazolo[1,5-a]pyridine-7-carboxamide]	> 70%	–
Cc1cc2ccnn2c(C(=O)NCC2CC2)c1NC(=O)c1cc(Cn2nnc(C(F)(F)F)n2)nn1-c1ncccc1Cl [Compound 171, 6-(1-(3-chloropyridin-2-yl)-3-((5-(trifluoromethyl)-2H-tetrazol-2-yl)methyl)-1H-pyrazole-5-carboxamido)-N-(cyclopropylmethyl)-5-methylpyrazolo[1,5-a]pyridine-7-carboxamide]	> 70%	> 70%
Cc1cc2ccnn2c(C(=O)NC2(C)CC2)c1NC(=O)c1cc(Br)nn1-c1ncccc1Cl [Compound 172, 6-(3-bromo-1-(3-chloropyridin-2-yl)-1H-pyrazole-5-carboxamido)-5-methyl-N-(1-methylcyclopropyl)pyrazolo[1,5-a]pyridine-7-carboxamide]	> 70%	–
Cc1cc2ccnn2c(C(=O)NC2(C)COC2)c1NC(=O)c1cc(Br)nn1-c1ncccc1Cl [Compound 173, 6-(3-bromo-1-(3-chloropyridin-2-yl)-1H-pyrazole-5-carboxamido)-5-methyl-N-(3-methyloxetan-3-yl)pyrazolo[1,5-a]pyridine-7-carboxamide]	> 70%	> 70%
Cc1cc2ccnn2c(C(=O)NCC(C)(C)C)c1NC(=O)c1cc(Br)nn1-c1ncccc1Cl [Compound 175, 6-(3-bromo-1-(3-chloropyridin-2-yl)-1H-pyrazole-5-carboxamido)-5-methyl-N-neopentylpyrazolo[1,5-a]pyridine-7-carboxamide]	> 70%	–
Cc1cc2ccnn2c(C(=O)NC(C)C(C)C)c1NC(=O)c1cc(Br)nn1-c1ncccc1Cl (stereo not drawn) [Compound 191, 6-(3-bromo-1-(3-chloropyridin-2-yl)-1H-pyrazole-5-carboxamido)-5-methyl-N-(3-methylbutan-2-yl)pyrazolo[1,5-a]pyridine-7-carboxamide]	> 70%	–
Cc1cc2ccnn2c(C(=O)NCC2CCCC2)c1NC(=O)c1cc(Br)nn1-c1ncccc1Cl [Compound 194, 6-(3-bromo-1-(3-chloropyridin-2-yl)-1H-pyrazole-5-carboxamido)-N-(cyclopentylmethyl)-5-methylpyrazolo[1,5-a]pyridine-7-carboxamide]	> 70%	–
COc1cc(C(=O)Nc2c(C)cc3ccnn3c2C(=O)NCc2nccs2)n(-c2ncccc2Cl)n1 [Compound 204, 6-(1-(3-chloropyridin-2-yl)-3-methoxy-1H-pyrazole-5-carboxamido)-5-methyl-N-(thiazol-2-ylmethyl)pyrazolo[1,5-a]pyridine-7-carboxamide]	> 70%	–
COc1cc(C(=O)Nc2c(C)cc3ccnn3c2C(=O)NCCC(C)C)n(-c2ncccc2Cl)n1 [Compound 211, 6-(1-(3-chloropyridin-2-yl)-3-methoxy-1H-pyrazole-5-carboxamido)-N-isopentyl-5-methylpyrazolo[1,5-a]pyridine-7-carboxamide]	> 70%	–
COc1cc(C(=O)Nc2c(C)cc3ccnn3c2C(=O)NCC2CCCCO2)n(-c2ncccc2Cl)n1 (stereo not drawn) [Compound 213, 6-(1-(3-chloropyridin-2-yl)-3-methoxy-1H-pyrazole-5-carboxamido)-5-methyl-N-((tetrahydro-2H-pyran-2-yl)methyl)pyrazolo[1,5-a]pyridine-7-carboxamide]	> 70%	–
